In ChEMBL document CHEMBL5257152, “Antiproliferative activity and toxicity evaluation of 1,2,3-triazole and 4-methyl coumarin hybrids in the MCF7 breast cancer cell line” (RSC Med Chem, 2023):
The source made the active and inactive calls. The rule behind the calls is not given here.

Columns and labels:
[1] = Antioxidant activity assessed as DPPH radical scavenging activity measured at 50 to 600 sec by spectrophotometric analysis; assay type: functional
SiHa = test: Cytotoxicity against human SiHa cells assessed as reduction in cell viability measured after 24 hrs; assay type: functional, cell-based
NIH3T3 [2] = test: Disruption of mitochondrial membrane potential in mouse 3T3 cells at 0.1 to 5 uM incubated for 24 hrs by […] inclusion assay; assay type: toxicity, cell-based; details: nih3t3, 24 h, dose 0.1-5 µM
[3] = Cytotoxicity against human OVCAR cells assessed as reduction in cell viability measured after 24 hrs; assay type: functional, cell-based
HepG2 = test: Cytotoxicity against human HepG2 cells assessed as reduction in cell viability measured after 24 hrs; assay type: functional, cell-based; details: HepG2, 24 h
[4] = Selectivity index, ratio of IC50 for mouse 3T3 cells to IC50 for human A549 cells; assay type: toxicity; details: 3T3 cells and A549 cells, read-out: Ratio IC50
J774.A1 = test: Cytotoxicity against mouse J774.A1 cells assessed as reduction in cell viability measured after 24 hrs; assay type: functional, cell-based; details: J774.A1, 24 h
[5] = Genotoxicity in mouse 3T3 cells assessed as cell death at 0.1 to 5 microM incubated for 24 hrs by LMW comet assay; assay type: toxicity, cell-based; details: nih3t3, 24 h, dose 0.1-5 µM
[6] = Selectivity index, ratio of IC50 for mouse 3T3 cells to IC50 for human OVCAR cells
NIH3T3 [7] = test: Induction of apoptosis in mouse 3T3 cells assessed as increase in early apoptotic cells at 0.1 to 1 microM incubated for 24 hrs by Annexin V/PI staining based fluorescence microscopic analysis; assay type: toxicity, cell-based; details: nih3t3, 24 h, dose 0.1-1 µM
[8] = Cytotoxicity against mouse 3T3 cells assessed as reduction in cell viability measured after 24 hrs; assay type: toxicity, cell-based; details: NIH3T3 cells
[9] = Selectivity index, ratio of IC50 for mouse 3T3 cells to IC50 for mouse J774.A1 cells
[10] = Selectivity index, ratio of IC50 for mouse 3T3 cells to IC50 for human MCF7 cells; assay type: toxicity; details: 3T3 cells and MCF7 cells, read-out: Ratio IC50
MCF7 [11] = test: Cytotoxicity against human MCF7 cells assessed as reduction in cell viability measured after 24 hrs; assay type: functional, cell-based; details: MCF7, 24 h
[12] = Selectivity index, ratio of IC50 for mouse 3T3 cells to IC50 for human HepG2 cells; assay type: toxicity; details: 3T3 cells and HepG2 cells, read-out: Ratio IC50
A549 = test: Cytotoxicity against human A549 cells assessed as reduction in cell viability measured after 24 hrs; assay type: functional, cell-based; details: A549, 24 h
NIH3T3 [13] = test: Induction of apoptosis in mouse 3T3 cells assessed as increase in necrotic cells at 0.1 to 1 microM incubated for 24 hrs by Annexin V/PI staining based fluorescence microscopic analysis; assay type: toxicity, cell-based; details: nih3t3, 24 h, dose 0.1-1 µM
[14] = Selectivity index, ratio of IC50 for mouse 3T3 cells to IC50 for human SiHa cells; assay type: toxicity; details: 3T3 cells and SiHa cells, read-out: Ratio IC50
NIH3T3 [15] = test: Antioxidant activity in mouse 3T3 cells assessed as reduction in ROS level at 0.1 to 5 uM incubated for 24 hrs by DCFH-DA dye based fluorescence microplate reader analysis; assay type: functional, cell-based; details: dose 0.1-5 µM
[16] = Genotoxicity in mouse 3T3 cells assessed as primary DNA damage at 0.1 to 5 microM incubated for 24 hrs by comet assay; assay type: toxicity, cell-based; details: nih3t3, 24 h, dose 0.1-5 µM
MCF7 [17] = test: Potency index, ratio of hymecromone IC50 to test compound IC50 for cytotoxicity against human MCF7 cells assessed as reduction in cell viability measured after 24 hrs; assay type: functional
NIH3T3 [18] = test: Induction of apoptosis in mouse 3T3 cells assessed as increase in late apoptotic cells at 1 microM incubated for 24 hrs by Annexin V/PI staining based fluorescence microscopic analysis; assay type: toxicity, cell-based; details: nih3t3, 24 h
RAW264.7 = test: Cytotoxicity against mouse RAW264.7 cells assessed as reduction in cell viability measured after 24 hrs; assay type: functional, cell-based; details: RAW264.7, 24 h
[19] = Selectivity index, ratio of IC50 for mouse 3T3 cells to IC50 for mouse RAW264.7 cells
NIH3T3 [20] = test: Cytotoxicity against mouse 3T3 cells assessed as reduction in cell viability at 40 uM measured after 24 hrs relative to control; assay type: toxicity, cell-based; details: nih3t3, 24 h

| SMILES | Ratio IC50 [6] | Ratio IC50 [9] | IC50 (SiHa) [µM] | Activity (NIH3T3 [2]) | IC50 [3] [µM] | IC50 (HepG2) [µM] | selectivity ratio [4] | IC50 (J774.A1) [µM] | Activity [5] | Activity (NIH3T3 [7]) | IC50 at 24 h [8] [µM] | selectivity ratio [10] | IC50 (MCF7 [11]) [µM] | selectivity ratio [12] | IC50 (A549) [µM] | Activity (NIH3T3 [13]) | selectivity ratio [14] | Activity (NIH3T3 [15]) | Activity [16] | Ratio IC50 (MCF7 [17]) | further results |
| --- | --- | --- | --- | --- | --- | --- | --- | --- | --- | --- | --- | --- | --- | --- | --- | --- | --- | --- | --- | --- | --- |
| Cc1cc(=O)oc2c(O)c(O)cc(C(=O)O)c12 |  |  |  |  |  |  |  |  |  |  |  |  |  |  |  |  |  |  |  |  | IC50 [1]: 17.5 µM |
| Cc1cc(=O)oc2c(O)c(O)ccc12 [4-METHYLDAPHNETIN] |  |  |  |  |  |  |  |  |  |  |  |  |  |  |  |  |  |  |  |  | IC50 [1]: 33.5 µM |
| Cc1cc(=O)oc2cc(OCCn3cc(-c4ccccc4)nn3)ccc12 | 0.004 | 0.072 | > 100 | Toxic | > 100 | > 100 | 0.007 | 33 | Non-Toxic | Toxic | 2.41 | 0.845 | 2.85 | 0.014 | > 100 | Non-Toxic | < 0.001 | inactive | Non-Toxic | 5 | Activity (NIH3T3 [18]): Toxic |
| O=c1ccc2cc(O)c(O)cc2o1 [ESCULETIN] |  |  |  |  |  |  |  |  |  |  |  |  |  |  |  |  |  |  |  |  | IC50 [1]: 25.2 µM |
| Cc1cc(=O)oc2cc(OCCn3cc(CCN4C(=O)c5ccccc5C4=O)nn3)ccc12 |  |  | > 100 | Toxic | 91.3 | 87.6 | 0.007 | 39.5 | Non-Toxic | Toxic | 0.62 | 0.233 | 2.66 | 0.007 | 80.8 | Non-Toxic | < 0.001 | inactive | Non-Toxic | 5 |  |

Now from value to compound, other results behind:

| Ratio IC50 [6] | Ratio IC50 [9] | SMILES | IC50 (SiHa) [µM] | Activity (NIH3T3 [2]) | IC50 [3] [µM] | IC50 (HepG2) [µM] | selectivity ratio [4] | IC50 (J774.A1) [µM] | Activity [5] | Activity (NIH3T3 [7]) | IC50 at 24 h [8] [µM] | selectivity ratio [10] | IC50 (MCF7 [11]) [µM] | selectivity ratio [12] | IC50 (A549) [µM] | Activity (NIH3T3 [13]) | selectivity ratio [14] | Activity (NIH3T3 [15]) | Activity [16] | Ratio IC50 (MCF7 [17]) | further results |
| --- | --- | --- | --- | --- | --- | --- | --- | --- | --- | --- | --- | --- | --- | --- | --- | --- | --- | --- | --- | --- | --- |
| 0.021 | 0.171 | Cc1cc(=O)oc2cc(O)ccc12 [HYMECROMONE] | > 100 | Non-Toxic | > 100 | > 100 | 0.155 | > 100 | Non-Toxic | Toxic | 24 | 0.438 | 54.8 | 0.161 | > 100 | Non-Toxic | 0.011 | Active | Non-Toxic |  |  |
| < 0.001 | 0.037 | Cc1cc(=O)oc2cc(OCCn3cc(CO)nn3)ccc12 | > 100 | Non-Toxic | > 100 | > 100 | 0.017 | > 100 | Non-Toxic | Toxic | 5.21 | 0.516 | 10.1 | 0.031 | > 100 | Non-Toxic | 0.002 | Active | Non-Toxic | 5 | IC50 (RAW264.7): 5.08 µM; Ratio IC50 [19]: 0.025 |
| 0.012 | 0.001 | Cc1cc(=O)oc2cc(OCCn3cc(COc4cccc5c(C)cc(=O)oc45)nn3)ccc12 | > 100 | Toxic | > 100 | 88.3 | 0.175 | > 100 | Non-Toxic | Toxic | > 40 | > 7.93 | 5.04 | 0.221 | > 100 | Non-Toxic | 0.001 | Active | Non-Toxic | 5 | Activity (NIH3T3 [20]): Non-Toxic; IC50 (RAW264.7): 8.37 µM; Ratio IC50 [19]: 2.33 |
